“And” between values parts separate entries of the source, which are not always exact repeats. Equal values may be shown once.
Key:
[1] = test system: sunflower GM1606 (Manteiner Line, A122T); test: Greenhouse whole-plant imazapir dose response (Example 8); type: in vivo, Helianthus annuus; settings: 14 DAT
Method: (§1) A greenhouse study was conducted to quantify and contrast the imazapir sensitivity of the mutants A122T and A205V in different genetic backgrounds at the whole plant level in sunflower. Seeds of the different sunflower lines that were used in this study were obtained under field conditions.
(§2) Seeds were sown in Petri dishes and, after germination, plantlets were transplanted to pots of 10 cm of diameter in a potting media consisting of equal parts of vermiculite, soil and sand. Plants were grown in a greenhouse under natural light conditions supplemented with 400 W sodium halide lamps to provide a 16 hrs daylength. Day/night temperatures were 25 and 20° C., respectively. At the V2 stage 10 plants of each genotype were randomly assigned to each treatment consisting of […] imazapir doses (0, 40, 80, 160, 240, 320, 400 and 480 g ai/ha), and a zero-time biomass determination. Experiment was arranged as a randomized block design with a full factorial (sunflower line×treatment) arrangement of treatments and 10 replications.
(§3) On the day of herbicide application ten plants of each genotype were cut at the cotyledonal node and dried at 60° C. for 48 hrs zero-time for dried weight determination. […] Height was determined as the distance between the cotyledonal node and the apex of each plant. For root biomass determination, each plant was taken from the pot and the potting media was washed out from the roots. Above ground biomass data from each line were converted to biomass accumulation after application by subtracting the appropriate average zero-time biomass from each sample. Dry biomass data were converted to percentages of the untreated control plants within each line to allow direct comparisons between groups.

[2] = test system: sunflower genotypes carrying the A205V mutation event; test: Greenhouse whole-plant imazapir dose response (Example 8), group mean; type: in vivo, Helianthus annuus; settings: 14 DAT; for biomass, Dif with control (reduction), A205V / plant height, Dif with Control (height reduction), A205V / root dry weight, Dif with control (reduction), A205V: A205V mean; for biomass accumulation (% of untreated), Mean A205V / root dry weight (% of untreated), Mean A205V / plant height (% of untreated), Mean A205V: mean of six A205V genotypes; for Phytotoxicity Index, Mean A205V: mean of three A205V genotypes
Method: as §1, §2, §3

CC(C)C1(C)N=C(c2ncccc2C(=O)O)NC1=O (centres unmarked) [imazapir, imazapyr]
plant height (% of untreated) ([1]; 0.5× (40 g ai/ha)): 97.0%
root dry weight (% of untreated) ([1]; 0.5× (40 g ai/ha)): 100%
biomass accumulation (dry biomass, % of untreated) ([1]; 1× (80 g ai/ha)): 100.0%
plant height (% of untreated) ([1]; 1× (80 g ai/ha)): 95.7%
root dry weight (% of untreated) ([1]; 1× (80 g ai/ha)): 100.0%
biomass accumulation (dry biomass, % of untreated) ([1]; 2× (160 g ai/ha)): 97.6%
plant height (% of untreated) ([1]; 2× (160 g ai/ha)): 95.2%
root dry weight (% of untreated) ([1]; 2× (160 g ai/ha)): 92.5%
biomass accumulation (dry biomass, % of untreated) ([1]; 3× (240 g ai/ha)): 95.4%
plant height (% of untreated) ([1]; 3× (240 g ai/ha)): 95.7%
root dry weight (% of untreated) ([1]; 3× (240 g ai/ha)): 85.2%
biomass accumulation (dry biomass, % of untreated) ([1]; 4× (320 g ai/ha)): 90.5%
plant height (% of untreated) ([1]; 4× (320 g ai/ha)): 94.1%
root dry weight (% of untreated) ([1]; 4× (320 g ai/ha)): 87.0%
biomass accumulation (dry biomass, % of untreated) ([1]; 5× (400 g ai/ha)): 85.3%
plant height (% of untreated) ([1]; 5× (400 g ai/ha)): 94.3%
root dry weight (% of untreated) ([1]; 5× (400 g ai/ha)): 88.1%
biomass accumulation (dry biomass, % of untreated) ([1]; 6× (480 g ai/ha)): 83.0%
plant height (% of untreated) ([1]; 6× (480 g ai/ha)): 91.4%
root dry weight (% of untreated) ([1]; 6× (480 g ai/ha)): 69.5%
biomass, Dif with control (reduction), A205V ([2]; 0.5× (40 g ai/ha)): 5.5%
plant height, Dif with Control (height reduction), A205V ([2]; 0.5× (40 g ai/ha)): 5.6%
root dry weight, Dif with control (reduction), A205V ([2]; 0.5× (40 g ai/ha)): 12.8%
biomass, Dif with control (reduction), A205V ([2]; 1× (80 g ai/ha)): 17.8%
plant height, Dif with Control (height reduction), A205V ([2]; 1× (80 g ai/ha)): 10.8%
root dry weight, Dif with control (reduction), A205V ([2]; 1× (80 g ai/ha)): 29.2%
biomass, Dif with control (reduction), A205V ([2]; 2× (160 g ai/ha)): 38.4%
plant height, Dif with Control (height reduction), A205V ([2]; 2× (160 g ai/ha)): 30.8%
root dry weight, Dif with control (reduction), A205V ([2]; 2× (160 g ai/ha)): 49.4%
biomass, Dif with control (reduction), A205V ([2]; 3× (240 g ai/ha)): 52.4%
plant height, Dif with Control (height reduction), A205V ([2]; 3× (240 g ai/ha)): 49.6%
root dry weight, Dif with control (reduction), A205V ([2]; 3× (240 g ai/ha)): 60.8%
biomass, Dif with control (reduction), A205V ([2]; 4× (320 g ai/ha)): 64.6%
plant height, Dif with Control (height reduction), A205V ([2]; 4× (320 g ai/ha)): 66.3%
root dry weight, Dif with control (reduction), A205V ([2]; 4× (320 g ai/ha)): 68.9%
biomass, Dif with control (reduction), A205V ([2]; 5× (400 g ai/ha)): 67.6%
plant height, Dif with Control (height reduction), A205V ([2]; 5× (400 g ai/ha)): 68.0%
root dry weight, Dif with control (reduction), A205V ([2]; 5× (400 g ai/ha)): 69.3%
biomass, Dif with control (reduction), A205V ([2]; 6× (480 g ai/ha)): 70.0%
plant height, Dif with Control (height reduction), A205V ([2]; 6× (480 g ai/ha)): 68.9% and 69.8%
root dry weight, Dif with control (reduction), A205V ([2]; 6× (480 g ai/ha)): 75.6%
biomass accumulation (% of untreated), Mean A205V ([2]; 0.5× (40 g ai/ha)): 94.5%
root dry weight (% of untreated), Mean A205V ([2]; 0.5× (40 g ai/ha)): 87.2%
biomass accumulation (% of untreated), Mean A205V ([2]; 1× (80 g ai/ha)): 82.2%
root dry weight (% of untreated), Mean A205V ([2]; 1× (80 g ai/ha)): 70.8%
biomass accumulation (% of untreated), Mean A205V ([2]; 2× (160 g ai/ha)): 61.6%
plant height (% of untreated), Mean A205V ([2]; 2× (160 g ai/ha)): 69.2%
root dry weight (% of untreated), Mean A205V ([2]; 2× (160 g ai/ha)): 50.6%
biomass accumulation (% of untreated), Mean A205V ([2]; 3× (240 g ai/ha)): 47.6%
plant height (% of untreated), Mean A205V ([2]; 3× (240 g ai/ha)): 50.4%
root dry weight (% of untreated), Mean A205V ([2]; 3× (240 g ai/ha)): 39.2%
biomass accumulation (% of untreated), Mean A205V ([2]; 4× (320 g ai/ha)): 35.4%
plant height (% of untreated), Mean A205V ([2]; 4× (320 g ai/ha)): 33.7%
root dry weight (% of untreated), Mean A205V ([2]; 4× (320 g ai/ha)): 31.1%
biomass accumulation (% of untreated), Mean A205V ([2]; 5× (400 g ai/ha)): 32.4%
plant height (% of untreated), Mean A205V ([2]; 5× (400 g ai/ha)): 32.0%
root dry weight (% of untreated), Mean A205V ([2]; 5× (400 g ai/ha)): 30.7%
biomass accumulation (% of untreated), Mean A205V ([2]; 6× (480 g ai/ha)): 30.0%
plant height (% of untreated), Mean A205V ([2]; 6× (480 g ai/ha)): 30.2%
root dry weight (% of untreated), Mean A205V ([2]; 6× (480 g ai/ha)): 24.4%
Phytotoxicity Index, Mean A205V ([2]; 2× (160 g ai/ha)): 2.2
Phytotoxicity Index, Mean A205V ([2]; 3× (240 g ai/ha)): 5.1
Phytotoxicity Index, Mean A205V ([2]; 4× (320 g ai/ha)): 7.4
Phytotoxicity Index, Mean A205V ([2]; 5× (400 g ai/ha)): 8.2
Phytotoxicity Index, Mean A205V ([2]; 6× (480 g ai/ha)): 8.2

Source: patent US20150176022A1, “HERBICIDE-RESISTANT SUNFLOWER PLANTS, POLYNUCLEOTIDES ENCODING HERBICIDE=RESISTANT ACETO HYDROXY ACID SYNTHASE LARGE SUBUNIT PROTEINS, AND METHODS OF USE” (priority 2013, published 2015)
